In patent publication US7157452B2, “Substituted 4,9-dihydrocyclopenta{imn}phenanthridine-5-ones derivatives thereof and their uses” (MGI GP, Inc., priority 2001, dated 2007):
Values joined by “and” are separate entries in the source; they are usually repeats but may differ in a detail not shown here. Identical values can stand only once.

Key:
rabbits = conditions: cited from earlier work
Swiss albino mice = experiment: Gout model: MSU crystal-induced neutrophil recruitment (peritonitis); type: in vivo
Description: Male outbread Swiss albino mice (20–22 g body weight) were purchased from Banton and Kingsman (T.O. strain; Hull, Humberside) and maintained on a standard chow pellet diet with tap water ad libitum and a 12:00 h light dark cycle. All animals were housed for 1 week prior to experimentation to allow body weight to reach 23–30 g.
1.11b-dihydrobenzopyrano[4,3,2-de]isoquinolin-1-one was dissolved in 100% DMSO at room temperature at a concentration of 45 mg in 2 ml. The compound was then injected into the peritoneal cavity, so as each mouse received a single dose corresponding to 45 mg/2 ml/kg (e.g. 60 μl for a mouse of 30 g). Control mice received DMSO at 2 ml/kg i.p. A third group of mice which were left untreated were added to control for potential effects of the vehicle. The study involved therefore, the following three groups: group A, untreated mice, n=6, group B, DMSO-treated mice, n=8, and group C, mice treated with 1.1 lb-dihydrobenzopyrano[4,3,2-de]isoquinolin-1-one, n=8
MSU crystal-induced neutrophil recruitment was tested as follows. In all cases, mice were treated 1 h after the treatment noted above, with MSU crystals. A homogenous suspension of MSU crystals was obtained by a 30 min rotation. Peritonitis was induced by injection of 3 mg MSU crystals in 0.5 ml PBS (0.1 M, pH 7.4), and the recruitment of neutrophils into the cavity evaluated at the 6 h time point (Gerting et al., 1997, J. Pharmacol. Exp. Ther. 233: 123–130). Animals were then euthanised by CO2 exposure and the peritoneal cavity washed with 3 ml of PBS supplemented with 3 mM EDTA and 25 U/ml heparin.
An aliquot (100 μl) of the lavage fluid was then diluted 1:10 in Turk's solution (0.01% crystal violet in 3% acetic acid). The samples were then vortexed and 10 μl of the stained cell solution were placed in a Neubauer haematocymometer and neutrophils numbers counted using a light microscope (Olympus B061). […]
Data are shown for single mice, and also shown as mean±S.E. of (n) mice per group. Statistical differences were determined by ANOVA, plus Bonferroni test. […]

PARP = conditions: read-out: IC50 for inhibiting PARP; reported by Suto et al.; cited from earlier work
male Long-Evans rats = experiment: Focal cerebral ischemia (right distal MCA cauterization with temporary bilateral CCA occlusion); type: in vivo; conditions: 24 h, mean±SD
Description: Focal cerebral ischemia is produced by cauterization of the right distal MCA (middle cerebral artery) with bilateral temporary common carotid artery occlusion in male Long-Evans rats for 90 minutes. All procedures performed on the animals are approved by the University Institutional Animal Care and Use Committee of the University of Pennsylvania. A total of 42 rats (weights: 230–340 g) obtained from Charles River were used in this study. The animals fasted overnight with free access to water prior to the surgical procedure.
Two hours prior to MCA occlusion, varying amounts (control, n=14; 5 mg/kg, n=7; 10 mg/kg, n=7; 20 mg/kg, n=7; and 40 mg/kg, n=7) of the compound, 3,4-dihydro-5-[4-(1-piperidinyl)-butoxy]-1(2H)-isoquinolinone (“DPQ”) were dissolved in dimethyl sulfoxide (DMSO) using a sonicator. A volume of 1.28 ml/kg of the resulting solution was injected intraperitoneally into […].
The rats were then anesthetized with halothane (4% for induction and 0.8%–1.2% for the surgical procedure) in a mixture of 70% nitrous oxide and 30% oxygen. The body temperature was monitored by a rectal probe and maintained at 37.5±0.5° C. with a heating blanket regulated by a homeothermic blanket control unit (Harvard Apparatus Limited, Kent, U.K.). A catheter (PE-50) was placed into the tail artery, and arterial pressure was continuously monitored and recorded on a Grass polygraph recorder (Model 7D, Grass Instruments, Quincy, Mass.). Samples for blood gas analysis (arterial pH, PaO2 and PaCO2) were also talcen from the tail artery catheter and measure with a blood gas analyzer (ABL 30, Radiometer, Copenhagen, Denmark). Arterial blood samples were obtained 30 minutes after MCA occlusion.
The head of the animal was positioned in a stereotaxic frame, and a right parietal incision between the right lateral canthus and the external auditory meatus was made. Using a dental drill constantly cooled with saline, a 3 mm burr hole was prepared over the cortex supplied by the right MCA, 4 mm lateral to the sagittal suture and 5 mm caudal to the coronal suture. The dura mater and a thin inner bone layer were kept, care being taken to position the probe over a tissue area devoid of large blood vessels. The flow probe (tip diameter of 1 mm fiber separation of 0.23 mm) was lowered to the bottom of the cranial burr hole using a micromanipulator. The probe was held stationary by a probe holder secured to the skull with dental cement. The microvascular blood flow in the right parietal cortex was continuously monitored with a laser Doppler flowmeter (FloLab, Moor, Devon, U.K., and Periflux 4001, Perimed, Stockholm, Sweden). […]

In the case of `Oc1cccc2c(O)nccc12` [1,5-dihydroxyisoquinoline], the “reduction in infarct size” value (rabbits; single injection 1 mg/kg) is listed as 38–42%.

In the case of `O=C1N=Cc2cccc3c2C1c1ccccc1O3` (stereo not shown) [1,11b-dihydrobenzopyrano[4,3,2-de]isoquinolin-1-one], the “inhibition of cell influx vs. the vehicle group” value (Swiss albino mice; 45 mg/kg i.p., MSU crystals, 6 h) is reported as 55%, the “Neutrophil Numbers (single mice)” value (Swiss albino mice; group C, 45 mg/kg i.p. 1 h prior to 3 mg MSU crystals, peritoneal lavage at 6 h, one value per mouse, 45 mg/kg) is reported as 2.4 10^6 per mouse (2×) and 3.0 10^6 per mouse (2×) and 2.7 10^6 per mouse and 2.1 10^6 per mouse (2×) and 5.1 10^6 per mouse and the “Neutrophils (10^6 per mouse), mean ± S.E.” value (Swiss albino mice; group C, 45 mg/kg i.p., MSU crystals (3 mg), 6 h, n=8, P<0.05 vs. vehicle group B (6.30 ± 0.33)) is reported as 2.85 ± 0.34 (8)* 10^6 per mouse.

For `NC(=O)c1cccc(N)c1` [3-aminobenzamide], the “reduction in infarct size in the heart” value (rabbits; single injection 10 mg/kg, one minute before occlusion or one minute before reperfusion) is given as 32–42%.

For `O=C1NCCc2c(OCCCCN3CCCCC3)cccc21` [DPQ, 3,4-dihydro-5-[4-(1-piperidinyl)-butoxy]-1(2H)-isoquinolinone], the IC50 (PARP) is listed as 40 nM, the “damaged volume (infarct volume)” value (male Long-Evans rats; 5 mg/kg i.p. 2 h before and 2 h after MCA occlusion, control 165.2±34.0, p<0.001) is listed as 106.7±23.2 mm^3 and the “damaged volume (infarct volume)” value (male Long-Evans rats; 10 mg/kg i.p. 2 h before and 2 h after MCA occlusion, control 165.2±34.0, p<0.001) is listed as 76.4±16.3 mm^3. The “damaged volume (infarct volume)” value (male Long-Evans rats; 20 mg/kg i.p. 2 h before and 2 h after MCA occlusion, control 165.2±34.0, p<0.01) was 110.2±42.0 mm^3 and the “damaged volume (infarct volume)” value (male Long-Evans rats; 40 mg/kg i.p. 2 h before and 2 h after MCA occlusion, no significant difference from control 165.2±34.0) was 135.6±44.8 mm^3.
